Data reported in PubChem BioAssay (NCI).
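Briefly, cells in 96-well plates were exposed to five compound concentrations for 48 h, and endpoints were estimated by linear interpolation. GI50 marks 50% less growth. TGI: total growth inhibition.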

Columns and labels:
Test in all cases: NCI-60 cell line screen, 48 h
NCI/ADR-RES ovarian = system: NCI/ADR-RES ovarian
SNB-75 CNS = system: SNB-75 CNS
UACC-62 melanoma = system: UACC-62 melanoma
CAKI-1 renal = system: CAKI-1 renal
KM12 colon = system: KM12 colon
SK-MEL-2 melanoma = system: SK-MEL-2 melanoma
SK-OV-3 ovarian = system: SK-OV-3 ovarian
NCI-H522 lung = system: NCI-H522 lung
PC-3 prostate = system: PC-3 prostate
A549 NSCLC = system: A549 NSCLC

Row | Compound | TGI (NCI/ADR-RES ovarian) [µM] | GI50 (SNB-75 CNS) [µM] | TGI (UACC-62 melanoma) [µM] | TGI (CAKI-1 renal) [µM] | TGI (KM12 colon) [µM] | GI50 (SK-MEL-2 melanoma) [µM] | TGI (SK-MEL-2 melanoma) [µM] | GI50 (SK-OV-3 ovarian) [µM] | TGI (SK-OV-3 ovarian) [µM] | GI50 (NCI-H522 lung) [µM] | TGI (NCI-H522 lung) [µM] | GI50 (PC-3 prostate) [µM] | TGI (PC-3 prostate) [µM] | TGI (A549 NSCLC) [µM] | TGI (SNB-75 CNS) [µM] | GI50 (NCI/ADR-RES ovarian) [µM] | GI50 (UACC-62 melanoma) [µM] | GI50 (CAKI-1 renal) [µM] | GI50 (KM12 colon) [µM] | GI50 (A549 NSCLC) [µM]
1 | CN(Cc1cnc2nc(N)nc(N)c2n1)c1ccc(C(=O)NC(CCC(=O)O)C(=O)O)c2ccccc12 (centres undefined) | > 1000 | > 85.6 | > 1000 | > 1000 | > 1000 | > 1000 | > 1000 | 55.3 | > 1000 | 0.0826 | 7.12 | 89.8 | > 1000 | > 1000 |  |  |  |  |  | 
2 | O=C1Nc2noc(=O)nc2NO1 | > 200 |  | > 200 | > 200 | > 200 |  | > 200 |  | > 200 |  | > 200 |  | > 200 | > 200 | > 200 |  |  |  |  | 
3 | Cc1ccc(S(=O)(=O)N/N=c2/sc3ccccc3n2C)cc1 | > 100 |  | > 100 | > 100 | > 100 |  | > 100 |  | > 100 |  | > 100 |  | > 100 | > 100 | > 100 |  |  |  |  | 
4 | C[n+]1c2ccccc2n2c3ccccc3c(NCCCn3ccnc3)c(C#N)c21 | > 93.5 |  | 17.6 | > 43.1 | 17.7 |  | 4.71 |  | 38.8 |  | 2.18 |  | 9.62 | 32.2 | 4.66 |  |  |  |  | 
5 | O=C(N/N=C/c1ccccc1)c1c(F)c(F)c(F)c(F)c1F | > 100 |  | > 100 | > 100 | > 100 |  | > 100 |  | > 100 |  | 49.2 |  | > 100 | > 100 | > 100 |  |  |  |  | 
6 | CC1(C)C(=O)/C(=C/c2ccccc2)C(C)(C)C1(C)C | > 100 |  | > 100 | > 100 | > 100 |  | > 100 |  | > 100 |  | > 100 |  | > 100 | > 100 | > 100 |  |  |  |  | 
7 | COc1cc2c(cc1OC)C1=C(C=O)c3ccc(OC)c(OC)c3C(O)N1CC2 (centres undefined) | 79.6 |  | 29.4 | > 100 | > 100 |  | 28.7 |  | > 100 |  | 75.2 |  | 54 | > 100 | 38.6 |  |  |  |  | 
8 | COc1cc(C=O)cc(C=Nc2ccc(Br)cc2)c1O | > 100 |  | 50.1 | 42 | > 100 |  | 17.6 |  | 7.83 |  | 23.5 |  | 50.5 | > 100 | > 100 |  |  |  |  | 
9 | Cc1cccc2c1nc1n2C(=O)c2ccccc2-1 | > 100 |  | > 100 | > 100 | > 100 |  | > 100 |  | > 100 |  | > 100 |  | > 100 | > 100 | > 100 |  |  |  |  | 
10 | COC(=O)CCC(C)[C@H]1CCC2C3CC[C@@H]4CC5(CC[C@]4(C)C3C[C@H](OC(C)=O)[C@@]21C)OOC1(CCCCC1)OO5 (some centres undefined) | > 100 |  | > 100 | 37 | > 100 |  | 52.2 |  | > 100 |  | 40.5 |  | > 100 | > 100 | > 100 |  |  |  |  | 
11 | CCCCCCCCCCCCCCCCNc1nc(=O)n(C2OC(C)C(O)C2O)cc1F (centres undefined) | 43.8 |  | 29 | 41.8 | 36.3 |  | 38.9 |  | 37.4 |  | 39 |  | 28.1 | 48 | 33.1 |  |  |  |  | 
12 | CN(C)c1cccc2c(S(=O)(=O)NCCN)cccc12 | > 100 |  | > 100 | > 100 | > 100 |  | > 100 |  | > 100 |  | > 100 |  | > 100 | > 100 | 64.1 |  |  |  |  | 
13 | COc1cc2c(cc1O)NC(=O)[C@@H]1C[C@@H](O)CN1C2=O | > 100 |  | > 100 | > 100 | > 100 |  | > 100 |  | > 100 |  | > 100 |  | > 100 | > 100 | > 100 |  |  |  |  | 
14 | CCNC(=S)N/N=C(/C)c1cccc(/C(C)=N\NC(=S)NCC)n1 | 21.1 |  | 27.2 | 74.1 | > 51.1 |  | > 93.1 |  | 73.8 |  | 24.5 |  | > 100 | > 82.9 | > 73.2 |  |  |  |  | 
15 | CC(C)OC(=O)C(NC(=O)C(CC(=O)OCc1ccccc1)NC(=O)OCc1ccccc1)NC(=O)C1C(C)(C)CCC1(C)C (centres undefined) | 21.2 |  | 47.9 | 21.9 | 34.9 |  | 58.4 |  | 10.4 |  | 24.1 |  | 11.2 | 5.07 | 11.5 |  |  |  |  | 
16 | Cc1n[nH]c(=O)n1-n1cccc1 | > 100 |  | > 100 | > 100 | > 100 |  | > 100 |  | > 100 |  | > 100 |  | > 100 | > 100 | > 100 |  |  |  |  | 
17 | Cc1cc(NC(=O)NC(=O)c2ccccc2NC(=O)CN(C)C)ccc1Oc1ncc(Br)cn1 | > 27.8 |  | > 82.9 | 64.3 | > 100 |  | > 85.1 |  | > 91.5 |  | 10.3 |  | > 100 | > 100 | 37.2 |  |  |  |  | 
18 | CC(=O)CCC1(C(=O)OCC(C)C)CCCC1=O (centres undefined) | > 100 |  | > 100 | > 100 | > 100 |  | > 100 |  | > 100 |  | > 100 |  | > 100 | > 100 | > 100 |  |  |  |  | 
19 | O=c1c2[nH]cnc2n(-c2ccccc2)c(=S)n1-c1ccccc1 | > 100 |  | > 100 | > 100 | > 100 |  | > 100 |  | > 100 |  | > 100 |  | > 100 | > 100 | > 100 |  |  |  |  | 
20 | COCc1cc2c(s1)C(=O)C1=C(C2=O)C2(C=C(Br)C(=O)C(Br)=C2)CCN1 | 9.41 |  | 3.08 | 34.6 | 17.9 |  | 15.2 |  | 30.7 |  | 7.31 |  | 12.1 | 19.4 | 27.9 |  |  |  |  | 
21 | CC[C@]1(c2ccc3c(c2)OCO3)C=[N+]([O-])O[C@H](OC2CCCC2(c2ccccc2)c2ccccc2)[C@@H]1OC(C)=O (some centres undefined) | 4.88 |  | 4.64 | > 100 | 3.62 |  | 5.73 |  | 14.4 |  | 4.78 |  | 13.1 | 11.4 | 5.93 |  |  |  |  | 
22 | C/C(=N\NC(=S)NC(C)(C)C)c1nc2ncccc2[nH]1 | > 84.4 |  | 46.7 | 16.4 | > 100 |  | > 80.3 |  | 12.6 |  | 51.2 |  | > 100 | 43.4 | > 84.5 |  |  |  |  | 
23 | CC(C)CNP(=O)(NCC(C)C)Oc1ccc(CC(NC(=O)OCc2ccccc2)C(=O)OCc2ccccc2)cc1 (centres undefined) | > 100 |  | 34.1 | > 100 | 38.3 |  | 34.8 |  | 29.2 |  | 30.5 |  | 30.8 | > 100 | 39.1 |  |  |  |  | 
24 | CC(=O)Oc1cc2c(cc1OCC(F)(F)F)[C@H]1CC[C@]3(C)[C@@H](OC(C)=O)CC[C@H]3[C@@H]1CC2=O | 43.6 |  | 42.6 | 47 | 74.9 |  | 44.7 |  | 59.7 |  | > 70 |  | 37.6 | 77.7 | 52.3 |  |  |  |  | 
25 | COc1ccc(O[C@H](CO)C[C@@H]2COC(C)(C)O2)cc1 | > 100 |  | > 100 | > 100 | > 100 |  | > 100 |  | > 100 |  | > 100 |  | > 100 | > 100 | > 100 |  |  |  |  | 
26 | N#Cc1cc(F)cc(Oc2ccc(S(=O)(=O)C(F)F)c3c2CC(F)(F)[C@H]3O)c1 | > 100 | 12.6 | > 100 | > 100 | > 100 | 16.4 | 59.8 | 31.4 | > 100 | 19.1 | 88.7 | 23.9 | > 100 | > 100 | 67.3 | 26.4 | 21.7 | 27.7 | 44.8 | 27.9
27 | O=C(O)[C@H]1NC[C@H]2C(Br)=NO[C@@H]12 | > 100 |  | > 100 | > 100 | > 100 |  | > 100 |  | > 100 |  | > 100 |  | > 100 | > 100 | > 100 |  |  |  |  | 
28 | O=c1[nH]c2c(Nc3c4ccccc4nc4ccccc34)c([N+](=O)[O-])c(Nc3c4ccccc4nc4ccccc34)c([N+](=O)[O-])c2[nH]1 | 2.24 |  | 3.32 | 6.69 | 12 |  | 3.93 |  | 18.4 |  | 2.82 |  | 5.97 | 3.56 | 7.79 |  |  |  |  | 
29 | C[C@H]1CCC/C=C/[C@@H]2C[C@H](OC3OC(CO)C(O)C(O)C3O)C[C@H]2[C@H](O)/C=C/C(=O)O1 (some centres undefined) | > 100 |  | > 100 | > 100 | 98 |  | > 100 |  | > 100 |  | > 100 |  | > 100 | > 100 | > 100 |  |  |  |  | 
30 | Nc1c(C(=O)O)c2ccc([N+](=O)[O-])cc2c(=O)n1-c1nc2ccccc2s1 | > 100 |  | > 100 | > 100 | > 100 |  | > 100 |  | > 100 |  | > 100 |  | > 100 | > 100 | > 100 |  |  |  |  | 
